According to PubChem BioAssay AID330 (DTP/NCI, 2004):
Several values for one entry are separate records, joined by “and”; a condition that tells them apart may be missing. Equal entries are not always repeated. Inconclusive results and toxic doses are left out. How the source made its calls: active means survival T/C of 150% or more; inactive means T/C below 125% in these data. Peptide text beside a SMILES is read from it. * marks the point of attachment. For = O=C*

Test system: P388 leukemia ip, CD2F1 mice, survival T/C
Experiment: NCI In Vivo Anticancer Drug Screen. Data for tumor model P388 Leukemia (intraperitoneal) in CD2F1 (CDF1) mice
Conditions: endpoint: median survival time, higher = longer survival
Outline: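 Mice carrying the transplanted tumor received test compound or vehicle. Survival was recorded in each group, and the value is the treated-group measurement divided by that of the vehicle-treated control group.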

[1] = dose: 50.0 mg/kg/injection, schedule: Q01DX005 (ip), vehicle: saline with Tween-80
[2] = dose: 100.0 mg/kg/injection, schedule: Q01DX005 (ip), vehicle: saline with Tween-80
[3] = dose: 200.0 mg/kg/injection, schedule: Q01DX005 (ip), vehicle: saline with Tween-80
[4] = dose: 50.0 mg/kg/injection, schedule: Q01DX005 (ip), vehicle: saline
[5] = dose: 100.0 mg/kg/injection, schedule: Q01DX005 (ip), vehicle: saline
[6] = dose: 50.0 mg/kg/injection, schedule: Q01DX009 (ip), vehicle: saline with Tween-80
[7] = dose: 100.0 mg/kg/injection, schedule: Q01DX009 (ip), vehicle: saline with Tween-80
[8] = dose: 200.0 mg/kg/injection, schedule: Q01DX009 (ip), vehicle: saline with Tween-80

Measured: T/C

Clc1ccc(-c2nc(CSc3ccccn3)cs2)cc1
inactive: dose: 50.0 mg/kg/injection, schedule: Q01DX009 (ip), vehicle: saline 102 % of control | dose: 100.0 mg/kg/injection, schedule: Q01DX009 (ip), vehicle: saline 109 % of control | dose: 200.0 mg/kg/injection, schedule: Q01DX009 (ip), vehicle: saline 105 % of control

CC(NC(=O)C(NC(=O)OCc1ccccc1)C(C)O)C(=O)OCc1ccccc1 (stereo unspecified)
inactive: [1] 101 % of control | [2] 92 % of control | [3] 100 % of control

O=C(O)C(Cc1ccc(OC(=O)C(F)(F)F)cc1)NC(=O)C(F)(F)F (stereo unspecified)
inactive: dose: 25.0 mg/kg/injection, schedule: Q04DX003 (ip), vehicle: saline with Tween-80 95 % of control | dose: 50.0 mg/kg/injection, schedule: Q04DX003 (ip), vehicle: saline with Tween-80 100 % of control | dose: 100.0 mg/kg/injection, schedule: Q04DX003 (ip), vehicle: saline with Tween-80 100 % of control and 101 % of control | dose: 400.0 mg/kg/injection, schedule: Q04DX003 (ip), vehicle: saline with Tween-80 93 % of control

OCCN1CCN(CCCN2c3ccccc3Sc3ccc(C(F)(F)F)cc32)CC1
inactive: dose: 7.5 mg/kg/injection, schedule: Q04DX003 (ip), vehicle: saline 111 % of control | dose: 15.0 mg/kg/injection, schedule: Q04DX003 (ip), vehicle: saline 120 % of control | dose: 60.0 mg/kg/injection, schedule: Q04DX003 (ip), vehicle: saline 123 % of control

CC(C)=CCC(OC(=O)CC(C)(C)O)C1=CC(=O)c2c(O)ccc(O)c2C1=O (stereo unspecified)
inactive: dose: 18.75 mg/kg/injection, schedule: Q01DX005 (ip), vehicle: Klucel (hydroxypropylcellulose) (HPC) 90 % of control | dose: 37.5 mg/kg/injection, schedule: Q01DX005 (ip), vehicle: Klucel (hydroxypropylcellulose) (HPC) 100 % of control

O=C(OCCCCCl)c1ccccc1
inactive: dose: 50.0 mg/kg/injection, schedule: Q01DX009 (ip), vehicle: saline + Tween-80 + alcohol 104 % of control | dose: 100.0 mg/kg/injection, schedule: Q01DX009 (ip), vehicle: saline + Tween-80 + alcohol 104 % of control | dose: 200.0 mg/kg/injection, schedule: Q01DX009 (ip), vehicle: saline + Tween-80 + alcohol 110 % of control | dose: 400.0 mg/kg/injection, schedule: Q01DX009 (ip), vehicle: saline + Tween-80 + alcohol 112 % of control

CCOC(=O)C12C3CC4C1C1(Cl)C(Cl)(Cl)C2(Cl)C2(Cl)C3C4C12Cl (stereo unspecified)
inactive: dose: 100.0 mg/kg/injection, schedule: Q04DX002 (ip), vehicle: saline with Tween-80 94 % of control | dose: 200.0 mg/kg/injection, schedule: Q04DX002 (ip), vehicle: saline with Tween-80 93 % of control | dose: 400.0 mg/kg/injection, schedule: Q04DX002 (ip), vehicle: saline with Tween-80 109 % of control

COc1cccc2c1C(=O)c1c(O)c3c(c(O)c1C2=O)C/C(=N/O)CC3OC1CC(NC(=O)C(F)(F)F)C(O)C(C)O1 (stereo unspecified)
inactive: dose: 1.56 mg/kg/injection, schedule: Q01DX009 (ip), vehicle: other 106 % of control | dose: 3.13 mg/kg/injection, schedule: Q01DX009 (ip), vehicle: other 88 % of control | dose: 6.25 mg/kg/injection, schedule: Q01DX009 (ip), vehicle: other 92 % of control | dose: 12.5 mg/kg/injection, schedule: Q01DX009 (ip), vehicle: other 110 % of control

CC1CCC[N+](C)([B-](F)(F)F)C1 (stereo unspecified)
inactive: [4] 100 % of control | [5] 100 % of control

CC(=O)NC(C=O)C(OC(C)C(=O)NC(C)C(=O)NC(CCC(N)=O)C(=O)O)C(OC1OC(CO)C(O)C(O)C1NC(C)=O)C(O)CO (stereo unspecified)
inactive: dose: 6.25 mg/kg/injection, schedule: Q01DX005 (ip), vehicle: saline 111 % of control | dose: 12.5 mg/kg/injection, schedule: Q01DX005 (ip), vehicle: saline 112 % of control | dose: 25.0 mg/kg/injection, schedule: Q01DX005 (ip), vehicle: saline 112 % of control | [4] 116 % of control

CCCCOC(=O)c1ccccc1OP(=O)(N(C)C)N(C)C
inactive: [4] 107 % of control | [5] 103 % of control

COc1cc(C2c3cc4c(cc3OC3(N5CCCC5)CCCCC23)OCO4)cc(OC)c1OC (stereo unspecified)
inactive: dose: 60.0 mg/kg/injection, schedule: Q01DX005 (ip), vehicle: Klucel (hydroxypropylcellulose) (HPC) 99 % of control | dose: 120.0 mg/kg/injection, schedule: Q01DX005 (ip), vehicle: Klucel (hydroxypropylcellulose) (HPC) 93 % of control | dose: 240.0 mg/kg/injection, schedule: Q01DX005 (ip), vehicle: Klucel (hydroxypropylcellulose) (HPC) 96 % of control

CCOC(=O)C1CC1C1=C(C)c2cc3[n-]c(cc4nc(cc5[n-]c(cc1n2)c(C)c5CCC(=O)OC)C(CCC(=O)OC)=C4C)c(C)c3C1CC1C(=O)OCC.[Zn+2] (stereo unspecified)
inactive: [1] 95 % of control | [2] 89 % of control | [3] 89 % of control

COc1cc2nc(C)[n+]3nc([O-])ccc3c2cc1OC
inactive: dose: 60.0 mg/kg/injection, schedule: Q01DX005 (ip), vehicle: suspension in saline 112 % of control | dose: 120.0 mg/kg/injection, schedule: Q01DX005 (ip), vehicle: suspension in saline 104 % of control | dose: 240.0 mg/kg/injection, schedule: Q01DX005 (ip), vehicle: suspension in saline 108 % of control

CN(C)CC1(c2ccccc2)C(=O)N(C)C(=O)N(C2CCCCC2)C1=O (stereo unspecified)
inactive: [6] 100 % of control | [7] 105 % of control | [8] 115 % of control

CCCOC(=O)c1ccccc1C(=O)O
inactive: [6] 105 % of control | [7] 104 % of control | [8] 101 % of control

COc1c2ccc(-c3ccccc3)oc-2cc(=O)c1C
inactive: dose: 2.0 mg/kg/injection, schedule: Q01DX005 (ip), vehicle: Klucel + Tween-80 100 % of control | dose: 4.0 mg/kg/injection, schedule: Q01DX005 (ip), vehicle: Klucel + Tween-80 100 % of control | dose: 8.0 mg/kg/injection, schedule: Q01DX005 (ip), vehicle: Klucel + Tween-80 109 % of control | dose: 16.0 mg/kg/injection, schedule: Q01DX005 (ip), vehicle: Klucel + Tween-80 92 % of control

CC(C)C(NC=O)C(=O)NCC(=O)NC(CO)C(=O)NC(CCC(=O)O)C(=O)O (stereo unspecified) (For-VGSE-OH; configuration not given here)
inactive: dose: 9.0 mg/kg/injection, schedule: Q01DX005 (ip), vehicle: water 110 % of control | dose: 18.0 mg/kg/injection, schedule: Q01DX005 (ip), vehicle: water 101 % of control | dose: 36.0 mg/kg/injection, schedule: Q01DX005 (ip), vehicle: water 110 % of control | dose: 72.0 mg/kg/injection, schedule: Q01DX005 (ip), vehicle: water 110 % of control | dose: 144.0 mg/kg/injection, schedule: Q01DX005 (ip), vehicle: water 106 % of control

Cc1cccc(=O)[n-]1.Cc1cccc(=O)[n-]1.Cc1cccc(=O)[n-]1.Cc1cccc(=O)[n-]1.Cc1cccc(=O)[n-]1.Cc1cccc(=O)[n-]1.Cc1cccc(=[OH+])[n-]1.Cc1cccc(=[OH+])[n-]1.[Rh+2].[Rh+2].[Rh+2].[Rh+2]
inactive: dose: 100.0 mg/kg/injection, schedule: Q04DX002 (ip), vehicle: Klucel (hydroxypropylcellulose) (HPC) 104 % of control | dose: 200.0 mg/kg/injection, schedule: Q04DX002 (ip), vehicle: Klucel (hydroxypropylcellulose) (HPC) 113 % of control

O=[N+]([O-])c1ccc(SC2=NCCCN2C2CCCCC2)c(Cl)c1
inactive: dose: 50.0 mg/kg/injection, schedule: Q01DX005 (ip), vehicle: Klucel (hydroxypropylcellulose) (HPC) 97 % of control | dose: 100.0 mg/kg/injection, schedule: Q01DX005 (ip), vehicle: Klucel (hydroxypropylcellulose) (HPC) 100 % of control | dose: 200.0 mg/kg/injection, schedule: Q01DX005 (ip), vehicle: Klucel (hydroxypropylcellulose) (HPC) 103 % of control

O=C1Cc2c(Cl)cccc2C(=S)N1
inactive: dose: 50.0 mg/kg/injection, schedule: Q01DX001 (ip), vehicle: saline with Tween-80 100 % of control | dose: 100.0 mg/kg/injection, schedule: Q01DX001 (ip), vehicle: saline with Tween-80 100 % of control | dose: 200.0 mg/kg/injection, schedule: Q01DX001 (ip), vehicle: saline with Tween-80 100 % of control
